The record followed here is PubChem BioAssay (NCI).

Among the test systems are U251 CNS; LOX IMVI melanoma; COLO 205 colon; 786-0 renal; SW-620 colon; HT29 colon; NCI-H522 lung; M14 melanoma; SNB-19 CNS; RPMI-8226 leukemia.
Common to all, as to assay: NCI anticancer screen, dose series, 48 h

SMILES strings stand for the structures. Several values for one entry are separate records, joined by “and”; a condition that tells them apart may be missing. Identical values can stand only once.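 Cells were grown in 96-well plates and exposed to each compound for 48 hours at five concentrations; endpoints were interpolated linearly between bracketing concentrations, or set to the highest concentration if not reached. At the GI50, growth is halved. The concentration for full growth arrest is given as TGI.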 Where only a bound is given, the exact number is not on record here.

In the case of `CCOC(=O)c1cc2c(cc1Cl)SC(=Nc1ccccc1)N(S(=O)(=O)c1ccc(Cl)cc1)S2(=O)=O`, the GI50 in the experiment on U251 CNS was 10.6 µM; with LOX IMVI melanoma, 3.17 µM; with COLO 205 colon, 9.06 µM; in the experiment with 786-0 renal, 13.5 µM; with SW-620 colon, 14.6 µM; with HT29 colon, 19.4 µM. For the same compound, the GI50 in the experiment with NCI-H522 lung was 15.5 µM; in the experiment with M14 melanoma, 11.2 µM; in the experiment on SNB-19 CNS it was 20.2 µM; in the experiment with RPMI-8226 leukemia it was 4.26 µM. Also, the TGI in the experiment with U251 CNS was 25.9 µM; in the experiment on LOX IMVI melanoma, 15 µM; in the experiment with COLO 205 colon, > 100 µM; in the experiment with 786-0 renal it was 27.5 µM; in the experiment with SW-620 colon it was 32.6 µM; in the experiment with HT29 colon it was > 100 µM. Further, the TGI in the experiment on NCI-H522 lung is 42.8 µM; in the experiment on M14 melanoma, 26 µM; in the experiment with SNB-19 CNS, > 100 µM; in the experiment with RPMI-8226 leukemia, 19.4 µM.
As for `COc1ccc2c(c1)[nH]c(=O)c1c3cccc(F)c3cn21`, the GI50 in the experiment with U251 CNS is 0.0472 µM; in the experiment with LOX IMVI melanoma it was 0.0759 µM; in the experiment on COLO 205 colon, 0.0388 µM; in the experiment with 786-0 renal, 0.0665 µM; in the experiment on SW-620 colon, 0.0343 µM; in the experiment on HT29 colon, 0.0306 µM. Besides, the GI50 in the experiment with NCI-H522 lung is 0.0756 µM; in the experiment on M14 melanoma it was 0.0463 µM; with SNB-19 CNS, 0.218 µM; in the experiment with RPMI-8226 leukemia, 0.0295 µM. For the same compound, the TGI in the experiment with U251 CNS was 14.8 µM; in the experiment on LOX IMVI melanoma, > 100 µM; with COLO 205 colon it was 1.11 µM; in the experiment with 786-0 renal, > 86.1 µM; with SW-620 colon, 25.8 µM; in the experiment on NCI-H522 lung, > 35.5 µM. Moreover, the values for the TGI with M14 melanoma, with SNB-19 CNS and in the experiment with RPMI-8226 leukemia were > 100 µM, > 69.6 µM and 0.27 µM, respectively.
In the case of `O=C(CC1OC(O)C(Cl)=C1Cl)c1cccnc1` (stereo not drawn), the TGI was > 57.7 µM in the experiment on U251 CNS; > 100 µM in the experiment on LOX IMVI melanoma; > 100 µM with COLO 205 colon; > 60.1 µM with 786-0 renal; > 33.9 µM with SW-620 colon; > 59.7 µM in the experiment on HT29 colon. Besides, the TGI in the experiment with NCI-H522 lung was > 100 µM; with M14 melanoma it was > 100 µM; in the experiment with SNB-19 CNS it was > 100 µM; with RPMI-8226 leukemia it was > 60.8 µM.
For `O=S(=O)(NNc1ccccc1)c1ccccc1`, the TGI was 33.9 µM in the experiment with U251 CNS; 13.6 µM in the experiment with LOX IMVI melanoma; 22.3 µM with COLO 205 colon; > 100 µM in the experiment with 786-0 renal; > 100 µM with SW-620 colon; 27.2 µM with HT29 colon. Also, the TGI is 31.1 µM in the experiment on NCI-H522 lung, 17.3 µM in the experiment on M14 melanoma, > 100 µM in the experiment with SNB-19 CNS and 46.4 µM in the experiment on RPMI-8226 leukemia.
`C[CH2][Ge]([CH2]C)([CH2]C)[O]C(=O)C(OC(C)=O)c1ccccc1` (stereo not drawn): the GI50 with U251 CNS, in the experiment on LOX IMVI melanoma, in the experiment with COLO 205 colon, in the experiment on 786-0 renal, in the experiment on SW-620 colon and with HT29 colon was > 100 µM throughout. In addition, the GI50 is > 100 µM in the experiment on NCI-H522 lung, > 100 µM in the experiment with M14 melanoma, > 100 µM with SNB-19 CNS and 31 µM in the experiment with RPMI-8226 leukemia. Moreover, the TGI with U251 CNS, in the experiment with LOX IMVI melanoma, in the experiment on COLO 205 colon, with 786-0 renal, in the experiment on SW-620 colon and in the experiment with HT29 colon was > 100 µM each time. The TGI in the experiment with NCI-H522 lung, in the experiment on M14 melanoma, with SNB-19 CNS and in the experiment with RPMI-8226 leukemia was > 100 µM throughout.
`CN(C)c1ccc2oc(=O)c3ccccc3c2c1`: the TGI in the experiment with U251 CNS is 58.7 µM; in the experiment with LOX IMVI melanoma it was > 100 µM; in the experiment with COLO 205 colon, > 100 µM; in the experiment with 786-0 renal it was 79.6 µM; in the experiment with SW-620 colon it was > 100 µM; with HT29 colon it was > 100 µM. In addition, the TGI was > 100 µM with NCI-H522 lung, > 100 µM with M14 melanoma, 70.2 µM in the experiment on SNB-19 CNS and > 100 µM in the experiment on RPMI-8226 leukemia.
In the case of `CC(C)(C)C1CCC2c3c([nH]c4ccccc34)C3C(=O)N(c4ccc(Cl)cc4)C(=O)C3C2C1` (stereo not drawn), the GI50 was 56.5 µM and > 10 µM in the experiment on U251 CNS; 49.9 µM and > 10 µM with COLO 205 colon; > 100 µM in the experiment with 786-0 renal; 53.9 µM and > 10 µM in the experiment with SW-620 colon; 34.5 µM and > 10 µM in the experiment with HT29 colon; 60.8 µM and > 10 µM with NCI-H522 lung. Besides, the GI50 was 54.3 µM and > 10 µM with M14 melanoma; > 100 µM in the experiment with SNB-19 CNS; 27.2 µM and > 10 µM in the experiment with RPMI-8226 leukemia. The TGI in the experiment on U251 CNS was > 100 µM; in the experiment on LOX IMVI melanoma it was 0.0487 µM; in the experiment with COLO 205 colon, > 100 µM; with 786-0 renal, > 100 µM; with SW-620 colon, > 100 µM; with HT29 colon, > 100 µM. Also, the TGI in the experiment with NCI-H522 lung was > 100 µM; with M14 melanoma, > 100 µM; in the experiment with SNB-19 CNS, > 100 µM; in the experiment with RPMI-8226 leukemia, 77 µM and > 10 µM.
Turning to `O=C1C(c2ccc(Br)cc2)=[N+]([O-])c2ccccc21`, the TGI with U251 CNS came to 27.9 µM; in the experiment on LOX IMVI melanoma it was 21.7 µM; in the experiment on COLO 205 colon it was 32.2 µM; with 786-0 renal it was 30.9 µM; in the experiment with SW-620 colon, 41.5 µM; in the experiment on HT29 colon it was 43.8 µM. Moreover, the TGI was 11.8 µM in the experiment with NCI-H522 lung, 29.8 µM in the experiment on M14 melanoma, 42.3 µM in the experiment on SNB-19 CNS and > 100 µM in the experiment with RPMI-8226 leukemia.
